The values below come from ChEMBL document CHEMBL4385604, “Identification of Pyrrolo[2,3- d]pyrimidine-Based Derivatives as Potent and Orally Effective Fms-like Tyrosine Receptor Kinase 3 (FLT3) Inhibitors for Treating Acute Myelogenous Leukemia” (J Med Chem, 2019).

Molecules are shown by their SMILES. The source made the active and inactive calls. No cut-off for these calls is given here.

Data set [1] deals with MOLM-13. The data set is described as follows: cells. The conditions noted are these: Homo sapiens, MOLM-13, 72 h.
Description: Antiproliferative activity against human MOLM13 cells harboring FLT3-ITD mutant measured after 72 hrs by MTT assay
In data set [2] the test system is MOLM-13. Nature of the data set: Antitumour activity against human MOLM13 cells xenografted in NOD/SCID mouse assessed as tumour growth inhibition. The format is functional, cell-based.
A short description of data set [3]: Plasma clearance in Sprague-Dawley rat at 5 mg/kg, po by LC-MS/MS analysis. Type of data set: ADME, organism-based.
Data set [4] deals with MOLM-13. The data set is described as follows: Potency index, ratio of quizartinib IC50 to test compound IC50 for human MOLM13 cells harboring FLT3-ITD mutant. Type of data set: functional.
The nature of data set [5]: Oral bioavailability in Sprague-Dawley rat at 5 mg/kg by LC-MS/MS analysis. The format is ADME, organism-based. The settings on record: in vivo.
Data set [6] has as its target T1, Receptor-type tyrosine-protein kinase FLT3 (Homo sapiens, UniProt P36888).
T1 sequence (P36888 whole entry): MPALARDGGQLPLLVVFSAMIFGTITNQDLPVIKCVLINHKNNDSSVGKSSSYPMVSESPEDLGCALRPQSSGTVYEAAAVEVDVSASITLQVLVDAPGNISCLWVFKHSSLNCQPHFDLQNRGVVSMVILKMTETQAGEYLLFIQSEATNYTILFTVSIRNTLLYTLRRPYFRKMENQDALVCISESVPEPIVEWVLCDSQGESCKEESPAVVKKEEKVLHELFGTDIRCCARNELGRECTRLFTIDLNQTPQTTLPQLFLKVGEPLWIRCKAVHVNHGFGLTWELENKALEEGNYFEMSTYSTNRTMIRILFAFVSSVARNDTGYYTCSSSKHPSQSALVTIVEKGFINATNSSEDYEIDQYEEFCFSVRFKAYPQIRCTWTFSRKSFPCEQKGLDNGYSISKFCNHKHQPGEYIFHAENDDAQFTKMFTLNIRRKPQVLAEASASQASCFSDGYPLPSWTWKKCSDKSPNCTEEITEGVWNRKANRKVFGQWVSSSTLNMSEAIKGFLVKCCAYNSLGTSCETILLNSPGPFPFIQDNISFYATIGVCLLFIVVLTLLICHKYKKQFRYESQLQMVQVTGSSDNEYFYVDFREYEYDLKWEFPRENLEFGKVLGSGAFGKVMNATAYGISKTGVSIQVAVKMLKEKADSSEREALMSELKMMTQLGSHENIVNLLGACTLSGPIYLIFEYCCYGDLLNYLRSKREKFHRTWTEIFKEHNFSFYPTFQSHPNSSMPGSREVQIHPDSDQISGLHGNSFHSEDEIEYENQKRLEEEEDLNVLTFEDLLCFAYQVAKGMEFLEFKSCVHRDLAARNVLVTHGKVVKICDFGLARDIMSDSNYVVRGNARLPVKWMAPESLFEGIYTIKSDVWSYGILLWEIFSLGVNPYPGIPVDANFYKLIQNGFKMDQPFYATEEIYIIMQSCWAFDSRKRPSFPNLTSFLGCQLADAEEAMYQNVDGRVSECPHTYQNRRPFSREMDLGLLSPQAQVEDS

For data set [7], the system named is BaF3. Nature of the data set: cells. The settings on record: Mus musculus, BaF3, 72 h.
Description: Antiproliferative activity against mouse BAF3 cells harboring FLT3-ITD-F691L mutant measured after 72 hrs by MTT assay
Data set [8] can be described thus: Tmax in Sprague-Dawley rat at 5 mg/kg, po by LC-MS/MS analysis. Type of data set: ADME, organism-based. The settings on record: in vivo.
For data set [9], the system named is HL-60. The data set is described as follows: Antiproliferative activity against human HL60 cells harboring wild-type FLT3 measured after 72 hrs by MTT assay. The format is functional, cell-based. The settings on record: HL-60, 72 h.
A short description of data set [10]: Elimination half-life in Sprague-Dawley rat at 5 mg/kg, po by LC-MS/MS analysis. Type of data set: ADME, organism-based. The settings on record: in vivo, read-out: beta t1/2 (converted).
Data set [11] relates to BaF3. The data set is described as follows: cells. The settings on record: Mus musculus, BaF3, 72 h. The source holds these as a separate data set.
Description: Antiproliferative activity against mouse BAF3 cells harboring FLT3-ITD-D835V mutant measured after 72 hrs by MTT assay
The test system of data set [12] is MV4-11. Nature of the data set: Antitumour activity against human MV4-11 cells xenografted in NOD/SCID mouse assessed as tumour growth inhibition. The format is functional, cell-based.
Data set [13] relates to RS4-11. The data set is described as follows: Antiproliferative activity against human RS4:11 cells harboring wild-type FLT3 measured after 72 hrs by MTT assay. Type of data set: functional, cell-based. The settings on record: RS4-11, 72 h.
Data set [14] concerns MV4-11. The data set is described as follows: cells. The conditions noted are these: Homo sapiens, MV4-11, 72 h.
Description: Antiproliferative activity against human MV4-11 cells harboring FLT3-ITD mutant measured after 72 hrs by MTT assay
Data set [15] has as its system BaF3. The data set is described as follows: cells. The conditions noted are these: Mus musculus, BaF3, 72 h. The source holds these as a separate data set.
Description: Antiproliferative activity against mouse BAF3 cells harboring FLT3-ITD mutant measured after 72 hrs by MTT assay

As to `CC(C)(C)c1cc(NC(=O)Nc2ccc(-c3c[nH]c4ncnc(N)c34)cc2)no1`, the IC50 was under 0.001 nM in data set [1]; 6 nM in data set [6]; 2.35 nM in data set [7]; over 1000 nM in data set [9]; 4.83 nM in data set [11]; over 1000 nM in data set [13]. Besides, the figures for the IC50 in data set [14] and in data set [15] were 0.043 nM and 0.16 nM, respectively. Besides, the TGI entry in data set [2] and in [12] was “inactive” in each case. The molecule also showed a CL/F in [3] of 14.8 mL/min/kg. In data set [4], the “Ratio IC50” value was over 100. Further, in data set [5], the bioavailability turned out to be 22.5%. The time of peak concentration (Tmax) in data set [8] was determined as 0.28 h. Besides, the half-life in data set [10] is 6.22 h.
Consider `CC(C)n1cc(-c2ccc(NC(=O)Nc3cc(C(C)(C)C)on3)cc2)c2c(N)ncnc21`, for which the half-maximal inhibitory concentration (IC50) in [1] was 0.971 nM; in [6], 20 nM; in [7], 12.6 nM; in data set [9] it was over 1000 nM; in data set [11], 12.2 nM; in [13] it was over 1000 nM. Besides, the IC50 in [14] was found to be 0.1 nM; in [15], 5.3 nM. Also, the apparent clearance (CL/F) in data set [3] is 255 mL/min/kg. In addition, the bioavailability in data set [5] is 12.1%. Besides, in data set [8], the Tmax came to 0.5 h. Besides, the half-life in [10] is 4.22 h.
For the molecule `CC(C)(C)c1cc(NC(=O)Nc2ccc(-c3c[nH]c4ncnc(N)c34)cc2F)no1`, the IC50 is 0.007 nM in [1]; 4 nM in data set [6]; 10.7 nM in data set [7]; over 1000 nM in data set [9]; 18 nM in data set [11]; over 1000 nM in data set [13]. The 50% inhibitory concentration (IC50) in data set [14] is 0.131 nM; in data set [15] it was 0.25 nM. In addition, the apparent clearance CL/F in data set [3] was 56.3 mL/min/kg. This molecule also had a bioavailability in data set [5] of 25.6%. Also, the Tmax in data set [8] was 0.88 h. The half-life in [10] was 2.54 h.
For the molecule `CC(C)(C)c1cc(NC(=O)Nc2ccc(-c3cn(CCCN4CCOCC4)c4ncnc(N)c34)cc2)no1`, the IC50 is 0.193 nM in data set [1]; 9 nM in data set [6]; 32.1 nM in [7]; over 1000 nM in data set [9]; 61.8 nM in data set [11]; over 1000 nM in data set [13]. In addition, the IC50 in data set [14] was 0.069 nM; in [15], 0.99 nM. The TGI result in [2] and in [12] was “inactive” throughout.
Turning to `C#CCn1cc(-c2ccc(NC(=O)Nc3cc(C(C)(C)C)on3)cc2)c2c(N)ncnc21`, the concentration for half-maximal inhibition (IC50) in data set [1] was 0.262 nM; in data set [6], 13 nM; in data set [7], 13.9 nM; in [9] it was over 1000 nM; in data set [11] it was 21.1 nM; in data set [13], over 1000 nM. In addition, the results for the IC50 in data set [14] and in [15] were 0.602 nM and 1.66 nM, respectively. In [3], this molecule showed a CL/F of 28.3 mL/min/kg. In data set [5], the bioavailability amounted to 40%. Moreover, the Tmax in data set [8] stood at 0.83 h. Besides, the half-life in [10] is 2.78 h.
For the molecule `CC(C)(C)c1cc(NC(=O)Nc2ccc(-c3cn(CCN4CCOCC4)c4ncnc(N)c34)cc2)no1`, the IC50 in data set [1] is 1.15 nM; in [6], 20 nM; in data set [7], 34.8 nM; in data set [9], over 1000 nM; in data set [11] it was 52.4 nM; in data set [13], over 1000 nM. In addition, the IC50 turned out to be 0.329 nM in data set [14] and 1.07 nM in [15]. Besides, the TGI entry in [2] and in [12] was “inactive” each time.
Regarding `CC(C)(C)c1cc(NC(=O)Nc2ccc(-c3cn(CC#N)c4ncnc(N)c34)cc2)no1`, the IC50 in [1] is 0.038 nM; in data set [6], 9 nM; in [7] it was 3.61 nM; in data set [9], over 1000 nM; in data set [11] it was 9.17 nM; in data set [13] it was over 1000 nM. The IC50 worked out at 0.032 nM in data set [14] and 0.97 nM in data set [15]. This molecule showed a CL/F in data set [3] of 153 mL/min/kg. Besides, the bioavailability in data set [5] was found to be 11.2%. Also, the Tmax in data set [8] worked out at 0.44 h. In addition, in [10], the half-life was 3.7 h.
Regarding `CC(C)(C)c1cc(NC(=O)Nc2ccc(-c3cn(CCCCO)c4ncnc(N)c34)cc2)no1`, the IC50 in data set [1] was 0.14 nM; in [6], 16 nM; in data set [7], 13.6 nM; in [9] it was over 1000 nM; in [11], 14.7 nM; in data set [13], over 1000 nM. Also, the half-inhibitory concentration (IC50) was determined as 0.876 nM in [14] and 1.73 nM in data set [15]. Also, in data set [3], the CL/F is 801 mL/min/kg. The same molecule yielded a bioavailability in [5] of 9.8%. Further, in data set [8], the Tmax was determined as 0.31 h. In addition, the half-life in data set [10] is 2.77 h.
